Results from US8163509B2, “Biological markers predictive of anti-cancer response to insulin-like growth factor-1 receptor kinase inhibitors” (The Regents of the University of Colorado, A Body Corporate, priority 2008, dated 2012).
Where two headings read alike, the source gives them in different places.

Key:
Assay in all cases: SRB proliferation assay, 72 h
LS513 CRC cell line = assay type: cell-based, human
Method: (§1) FIG. 17: Results of cell proliferation assay on the panel of 27 CRC cell lines. Cell proliferation was evaluated by SRB following exposure to OSI-906 for 72 hours. Cells were plated at an optimized density in 96-well plates, incubated overnight at 37° C., and then exposed to a serial dilution of OSI-906. After 72 hours incubation, cells were fixed with trichloroacetic acid and an SRB was performed as described in materials and methods.
(§2) Cell Lines and Culture. […] human colon cancer cell lines, were obtained from American Type Culture Collection (Manassas, Va.). Cells were grown in RPMI medium supplemented with 10% fetal bovine serum, 1% non-essential amino acids, 1% penicillin/streptomycin and were maintained at 37° C. in an incubator under an atmosphere containing 5% CO2. The cells were routinely screened for the presence of mycoplasma (MycoAlert, Cambrex Bio Science, Baltimore, Md.) and were exposed to PQIP when they reached approximately 70% confluence.
(§3) Cytotoxicity and Combination Effects: HT29, HCT116, RKO, and LS513 CRC cell lines were exposed to 0-10 nM SN-38 (7-Ethyl-10-hydroxy-camptothecin), 0-10 μM Oxaliplatin, or 0-50 μM 5-Fluorouracil (5-FU) for 72 hours. HT29, HCT116, RKO, and LS513 CRC cell lines were exposed to PQIP in combination with SN-38, Oxaliplatin or 5-FU. In all combinations, cells were seeded in 96-well flat bottomed plates and left overnight. PQIP and chemotherapy were both added for 72 hours. The results of the combinations were analyzed by the Chou and Talalay method with Calcusyn (Biosoft, Ferguson, Mo.).
(§4) The CRC cell lines were treated with a range of concentrations of PQIP (from 0.05-5 μM) for 72 hours.
(§5) Combination treatment of PQIP with Chemotherapy in Colon Cancer Cell Lines: IGF1R is overexpressed in CRC and has been associated with resistance to chemotherapy. Therefore, we investigated the effect of PQIP in combination with standard chemotherapy for CRC. Four CRC cell lines including, two PQIP sensitive and two PQIP resistant, were chosen for combinations. HT29 and LS513 CRC cell lines were classified as sensitive, with IC50's around 0.3 μmol/L. HCT116 and RKO CRC cell lines were classified as resistant, with IC50>5 μmol/L. Concentrations were chosen based on single agent proliferation curves for each compound. Cells were exposed to PQIP and chemotherapy (SN38, oxaliplatin, or 5-Fluorouracil) concurrently for 72 h and combinations were assessed using the SRB assay. […] It thus appears that biomarkers which predict tumor cell sensitivity will also indicate which cells will respond in a synergistic manner to an IGF-1R kinase inhibitor (e.g. PQIP) and chemotherapy (i.e. SN38, oxaliplatin, or 5-Fluorouracil).
Cell Lines and Culture: Twenty-seven human colon cancer cell lines, were obtained from American Type Culture Collection (Manassas, Va.). The GEO cells were a generous gift from Dr. Fortunato Ciardiello (Cattedra di Oncologia Medica, Dipartimento Medico-Chirurgico di Internistica Clinica e Sperimentale “F Magrassi e A Lanzara,” Seconda Università degli Studi di Napoli, Naples). All cells except GEO were grown in RPMI medium supplemented with 10% fetal bovine serum, 1% non-essential amino acids, 1% penicillin/streptomycin and were maintained at 37° C. in an incubator under an atmosphere containing 5% CO2. GEO cells were grown in DMEM/F12 supplemented with 10% fetal bovine serum, 1% non-essential amino acids, 1% penicillin/streptomycin. […]

SW480 CRC cell line = assay type: cell-based, human; details: for IC50: Homo sapiens, SW480
Method: as §1, with “Cell” for “FIG. 17: Results of cell proliferation assay on the panel of 27 CRC cell lines. Cell”
as §2
(§6) Multiple clones from the same transfection were pooled and grown under puromycin selection.
as §4
To characterize the potential functionality that the selected genes may play in the sensitivity or resistance to PQIP, resistant and sensitive CRC cell lines were stably transfected with specific shRNA, treated with increasing concentrations of PQIP and proliferation assays performed to observe, if when manipulated, these genes alter responsiveness (i.e. the S or R phenotype). […] Both of these transfected cell lines were assayed for proliferation as described above.
(§7) Cell Lines and Culture: Twenty-seven human colon cancer cell lines, were obtained from American Type Culture Collection (Manassas, Va.). The GEO cells were a generous gift from Dr. Fortunato Ciardiello (Cattedra di Oncologia Medica, Dipartimento Medico-Chirurgico di Internistica Clinica e Sperimentale “F Magrassi e A Lanzara,” Seconda Università degli Studi di Napoli, Naples). All cells except GEO were grown in RPMI medium supplemented with 10% fetal bovine serum, 1% non-essential amino acids, 1% penicillin/streptomycin and were maintained at 37° C. in an incubator under an atmosphere containing 5% CO2. GEO cells were grown in DMEM/F12 supplemented with 10% fetal bovine serum, 1% non-essential amino acids, 1% penicillin/streptomycin. The cells were routinely screened for the presence of mycoplasma (MycoAlert, Cambrex Bio Science, Baltimore, Md.) and were exposed to OSI-906 when they reached approximately 70% confluence. OSI-906 was provided by OSI Pharmaceuticals, (Boulder, Colo.) and prepared as a 10 mM stock solution in DMSO.
as §6

RKO CRC cell line = assay type: cell-based, human; details: for IC50: Homo sapiens
Method: as §1, §2, §3, §4
as §5, with “5-Fluorouracil). […]” for “5-Fluorouracil).”

GEO CRC cell line = assay type: cell-based; details: Homo sapiens
Method: as §1, with “Cell” for “FIG. 17: Results of cell proliferation assay on the panel of 27 CRC cell lines. Cell”
as §7

[1] = 72 hours, read-out: IC50, proliferation, OSI-906 (SRB)
[2] = 72 hours, 0.05-5 μM, read-out: IC50, growth inhibition by PQIP (SRB)

Row | IC50 (SW480 CRC cell line; read-out: S/I/R to OSI-906) [µM] | IC50 (SW480 CRC cell line; [1]) [µM] | IC50 (SW480 CRC cell line; [2]) [µM] | SMILES | IC50 (LS513 CRC cell line; Homo sapiens, LS-513, 72 h, LS513, 72 hours, read-out: IC50, proliferation, OSI-906 (SRB)) [nM] | IC50 (LS513 CRC cell line; Homo sapiens, LS-513, LS513, read-out: S/I/R to OSI-906) [nM] | shift in sensitivity to OSI-906 after MT2A shRNA knockdown (SW480 CRC cell line; SW480 stably transfected with MT2A shRNA) | IC50 (RKO CRC cell line; [1]) [µM] | IC50 (RKO CRC cell line; read-out: S/I/R to OSI-906) [µM] | IC50 (GEO CRC cell line; [1]) [nM] | IC50 (GEO CRC cell line; read-out: S/I/R to OSI-906) [nM] | IC50 (LS513 CRC cell line; Homo sapiens, LS-513, 72 h, LS513, 72 hours, 0.05-5 μM, read-out: IC50, growth inhibition by PQIP (SRB)) [nM] | IC50 (LS513 CRC cell line; LS513, 72 hours, 0.05-5 μM, read-out: IC50, growth inhibition by PQIP (SRB)) [nM] | combination index (CI) values, PQIP and chemotherapy (LS513 CRC cell line; LS513, PQIP with SN38, oxaliplatin or 5-Fluorouracil concurrently 72 h, nearly all CI values, Chou and Talalay) | shift in sensitivity to PQIP after shRNA knockdown (SW480 CRC cell line; SW480 transfected with MT2A shRNA vs parental or scramble shRNA control) | shift in sensitivity to PQIP after shRNA knockdown (SW480 CRC cell line; SW480 transfected with caldesmon shRNA vs parental or scramble shRNA control) | IC50 (RKO CRC cell line; [2]) [µM] | combination index (CI) values, PQIP and chemotherapy (RKO CRC cell line; PQIP with SN38, oxaliplatin or 5-Fluorouracil concurrently 72 h, nearly all combinations, Chou and Talalay)
1 | > 5 | > 5 | – | C[C@]1(O)C[C@@H](c2nc(-c3ccc4ccc(-c5ccccc5)nc4c3)c3c(N)nccn32)C1 [OSI-906, cis-3-[8-amino-1-(2-phenyl-quinolin-7-yl)-imidazo[1,5-a]pyrazin-3-yl]-1-methyl-cyclobutanol] | ≤ 1500 | ≤ 1500 | did not exhibit the same “left shift” | > 5 | > 5 | ≤ 1500 | ≤ 1500 | – | – | – | – | – | – | –
2 | – | – | > 5 | CN1CCN([C@H]2C[C@@H](c3nc(-c4ccc5ccc(-c6ccccc6)nc5c4)c4c(N)nccn43)C2)CC1 [PQIP, cis-3-[3-(4-Methyl-piperazin-1-yl)-cyclobutyl]1-(2-phenyl-quinolin-7-yl)-imidazo[1,5-a]pyrazin-8-ylamine] | – | – | – | – | – | – | – | < 500 | ~300 | 0.2-1.0 | very modest if any left shift in sensitivity | no left shift in sensitivity | > 5 | 0.6-1.4
